pIC50: −log10 of the molar value.
Assays:
[1] = biological target: T1, Muscarinic acetylcholine receptor M1 (Homo sapiens) (UniProt P11229); assay: Agonist activity at human muscarinic M1 acetylcholine receptor expressed in CHO cells assessed as calcium mobilization at 0.3 uM by FLIPR assay; assay type: functional, cell-based
T1 sequence (whole entry): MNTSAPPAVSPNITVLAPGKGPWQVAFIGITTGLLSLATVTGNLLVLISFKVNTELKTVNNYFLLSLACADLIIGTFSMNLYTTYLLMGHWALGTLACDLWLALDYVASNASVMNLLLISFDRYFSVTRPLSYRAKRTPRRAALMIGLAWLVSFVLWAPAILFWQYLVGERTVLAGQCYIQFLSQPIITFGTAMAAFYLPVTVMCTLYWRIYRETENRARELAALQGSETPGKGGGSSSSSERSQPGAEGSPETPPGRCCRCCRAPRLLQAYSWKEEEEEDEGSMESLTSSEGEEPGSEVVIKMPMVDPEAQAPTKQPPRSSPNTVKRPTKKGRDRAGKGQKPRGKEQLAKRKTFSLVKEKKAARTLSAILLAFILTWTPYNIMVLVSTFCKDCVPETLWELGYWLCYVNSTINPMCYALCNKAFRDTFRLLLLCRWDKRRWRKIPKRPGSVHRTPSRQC

[2] = biological target: T2, Muscarinic acetylcholine receptor M2 (Homo sapiens) (UniProt P08172); assay: Agonist activity at human muscarinic M2 acetylcholine receptor expressed in CHO cells co-expressing Galpha16 assessed as calcium mobilization at 0.3 uM by FLIPR assay; assay type: functional, cell-based
T2 sequence (whole entry): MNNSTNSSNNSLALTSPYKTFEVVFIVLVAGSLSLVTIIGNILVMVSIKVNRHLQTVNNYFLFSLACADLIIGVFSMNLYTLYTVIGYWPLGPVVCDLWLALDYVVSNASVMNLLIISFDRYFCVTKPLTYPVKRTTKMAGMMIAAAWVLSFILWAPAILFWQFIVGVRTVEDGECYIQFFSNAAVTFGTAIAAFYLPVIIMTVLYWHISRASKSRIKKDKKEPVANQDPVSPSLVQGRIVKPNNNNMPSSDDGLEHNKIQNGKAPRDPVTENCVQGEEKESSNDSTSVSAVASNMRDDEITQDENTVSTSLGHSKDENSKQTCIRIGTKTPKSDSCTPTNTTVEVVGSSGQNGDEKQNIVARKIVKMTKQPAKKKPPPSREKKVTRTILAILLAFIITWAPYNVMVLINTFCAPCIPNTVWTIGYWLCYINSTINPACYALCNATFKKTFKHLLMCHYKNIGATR

Cytochrome P450 1A2 = Cytochrome P450 1A2 (Homo sapiens, UniProt P05177); assay: Inhibition of CYP1A2 (unknown origin); assay type: ADME
Chain of Cytochrome P450 1A2 (P05177 whole entry): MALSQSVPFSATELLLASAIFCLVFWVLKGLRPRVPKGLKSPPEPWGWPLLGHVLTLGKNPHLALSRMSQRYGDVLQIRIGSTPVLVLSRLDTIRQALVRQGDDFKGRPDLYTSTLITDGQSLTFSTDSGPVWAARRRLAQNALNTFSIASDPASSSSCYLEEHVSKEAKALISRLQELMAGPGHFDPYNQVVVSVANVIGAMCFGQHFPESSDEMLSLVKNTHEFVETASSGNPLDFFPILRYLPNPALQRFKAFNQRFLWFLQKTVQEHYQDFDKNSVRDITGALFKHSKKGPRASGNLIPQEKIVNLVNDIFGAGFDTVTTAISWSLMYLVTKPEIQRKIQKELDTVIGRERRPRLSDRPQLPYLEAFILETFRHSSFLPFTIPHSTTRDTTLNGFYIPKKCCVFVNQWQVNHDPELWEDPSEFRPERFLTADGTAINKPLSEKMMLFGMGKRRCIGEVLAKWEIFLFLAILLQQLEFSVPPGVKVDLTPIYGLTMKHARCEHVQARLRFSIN

Cytochrome P450 3A4 = Cytochrome P450 3A4 (Homo sapiens, UniProt P08684); assay: Inhibition of CYP3A4 (unknown origin); assay type: ADME
Chain of Cytochrome P450 3A4 (P08684 whole entry): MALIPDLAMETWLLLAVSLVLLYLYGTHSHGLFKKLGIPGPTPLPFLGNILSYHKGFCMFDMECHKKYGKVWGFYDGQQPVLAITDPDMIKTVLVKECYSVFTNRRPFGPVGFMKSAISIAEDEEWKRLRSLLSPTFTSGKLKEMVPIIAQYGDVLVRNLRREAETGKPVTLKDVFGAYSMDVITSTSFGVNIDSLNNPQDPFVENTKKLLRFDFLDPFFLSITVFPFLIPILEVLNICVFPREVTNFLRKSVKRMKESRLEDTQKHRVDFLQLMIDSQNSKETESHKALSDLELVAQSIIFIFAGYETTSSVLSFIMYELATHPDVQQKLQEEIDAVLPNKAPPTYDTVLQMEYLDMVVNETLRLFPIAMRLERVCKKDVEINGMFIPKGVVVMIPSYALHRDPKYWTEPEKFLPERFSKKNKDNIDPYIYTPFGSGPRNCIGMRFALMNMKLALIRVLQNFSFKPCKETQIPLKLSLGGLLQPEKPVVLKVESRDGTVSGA

[3] = Ratio of drug level in brain to blood in rat; assay type: ADME, tissue-based
[4] = biological target: D(2) dopamine receptor (Homo sapiens) (UniProt P14416); assay: Binding affinity to dopamine D2 receptor (unknown origin) at 3 uM by radioligand-binding assay
Chain of D(2) dopamine receptor (Homo sapiens) (P14416 whole entry): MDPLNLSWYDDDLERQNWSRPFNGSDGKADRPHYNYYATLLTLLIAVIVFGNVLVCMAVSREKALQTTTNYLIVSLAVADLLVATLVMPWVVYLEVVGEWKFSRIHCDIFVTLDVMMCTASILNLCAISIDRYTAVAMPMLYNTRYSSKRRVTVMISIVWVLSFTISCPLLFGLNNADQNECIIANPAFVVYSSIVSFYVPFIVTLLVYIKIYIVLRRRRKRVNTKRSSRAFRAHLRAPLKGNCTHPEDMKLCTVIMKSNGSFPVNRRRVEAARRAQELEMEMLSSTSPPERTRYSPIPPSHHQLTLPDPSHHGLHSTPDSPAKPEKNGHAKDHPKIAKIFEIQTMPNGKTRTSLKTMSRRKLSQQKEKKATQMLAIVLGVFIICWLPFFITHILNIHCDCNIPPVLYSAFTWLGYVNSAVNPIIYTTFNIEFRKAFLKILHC

[5] = biological target: Muscarinic acetylcholine receptor M3 (Homo sapiens) (UniProt P20309); assay: Agonist activity at human muscarinic M3 acetylcholine receptor expressed in CHO cells assessed as calcium mobilization at 30 uM by FLIPR assay; assay type: functional, cell-based
Rattus norvegicus = assay: Antipsychotic-like activity in sc dosed rat assessed as inhibition of METH-induced locomotor hyperactivity; assay type: functional
[6] = biological target: Adenosine receptor A1 (Homo sapiens) (UniProt P30542); assay: Agonist activity at adenosine a1 receptor (unknown origin) expressed in CHO cells assessed as calcium mobilization at 3 uM; assay type: functional, cell-based
Chain of Adenosine receptor A1 (Homo sapiens) (P30542 whole entry): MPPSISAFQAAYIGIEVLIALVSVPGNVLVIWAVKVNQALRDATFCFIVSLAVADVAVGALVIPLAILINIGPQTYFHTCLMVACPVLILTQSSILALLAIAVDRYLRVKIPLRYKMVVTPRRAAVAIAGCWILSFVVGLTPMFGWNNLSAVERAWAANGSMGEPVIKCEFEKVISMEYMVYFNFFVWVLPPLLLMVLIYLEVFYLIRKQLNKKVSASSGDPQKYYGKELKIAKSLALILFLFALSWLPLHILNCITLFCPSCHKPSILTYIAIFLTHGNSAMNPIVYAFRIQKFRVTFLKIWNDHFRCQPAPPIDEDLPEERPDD

[7] = biological target: Alpha-2C adrenergic receptor (Homo sapiens) (UniProt P18825); assay: Agonist activity at adrenergic a2C receptor (unknown origin) expressed in CHO cells assessed as calcium mobilization at 3 uM; assay type: functional, cell-based
[8] = biological target: D(2) dopamine receptor (Homo sapiens) (UniProt P14416); assay: Agonist activity at dopamine D2L receptor (unknown origin) expressed in CHO cells assessed as calcium mobilization at 3 uM; assay type: functional, cell-based
[9] = biological target: D(1B) dopamine receptor (Homo sapiens) (UniProt P21918); assay: Agonist activity at dopamine D5 receptor (unknown origin) expressed in CHO cells assessed as calcium mobilization at 3 uM; assay type: functional, cell-based
[10] = biological target: Histamine H3 receptor (Homo sapiens) (UniProt Q9Y5N1); assay: Agonist activity at histamine H3 receptor (unknown origin) expressed in CHO cells assessed as calcium mobilization at 3 uM; assay type: functional, cell-based
[11] = biological target: Cysteinyl leukotriene receptor 2 (Homo sapiens) (UniProt Q9NS75); assay: Agonist activity at CysLT2 receptor (unknown origin) expressed in CHO cells assessed as calcium mobilization at 3 uM; assay type: functional, cell-based
Chain of Cysteinyl leukotriene receptor 2 (Homo sapiens) (Q9NS75 whole entry): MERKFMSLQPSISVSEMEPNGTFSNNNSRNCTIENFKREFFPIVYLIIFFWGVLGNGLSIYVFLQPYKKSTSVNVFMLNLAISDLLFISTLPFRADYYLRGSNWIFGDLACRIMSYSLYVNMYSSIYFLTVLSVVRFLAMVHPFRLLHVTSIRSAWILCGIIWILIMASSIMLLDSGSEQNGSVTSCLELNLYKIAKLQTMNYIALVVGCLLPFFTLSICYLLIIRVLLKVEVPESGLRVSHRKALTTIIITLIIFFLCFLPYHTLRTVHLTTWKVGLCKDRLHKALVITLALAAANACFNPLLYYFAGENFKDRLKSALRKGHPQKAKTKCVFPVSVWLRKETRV

[12] = biological target: Delta-type opioid receptor (Homo sapiens) (UniProt P41143); assay: Agonist activity at opiate delta1 receptor (unknown origin) expressed in CHO cells assessed as calcium mobilization at 3 uM; assay type: functional, cell-based
Chain of Delta-type opioid receptor (Homo sapiens) (P41143 whole entry): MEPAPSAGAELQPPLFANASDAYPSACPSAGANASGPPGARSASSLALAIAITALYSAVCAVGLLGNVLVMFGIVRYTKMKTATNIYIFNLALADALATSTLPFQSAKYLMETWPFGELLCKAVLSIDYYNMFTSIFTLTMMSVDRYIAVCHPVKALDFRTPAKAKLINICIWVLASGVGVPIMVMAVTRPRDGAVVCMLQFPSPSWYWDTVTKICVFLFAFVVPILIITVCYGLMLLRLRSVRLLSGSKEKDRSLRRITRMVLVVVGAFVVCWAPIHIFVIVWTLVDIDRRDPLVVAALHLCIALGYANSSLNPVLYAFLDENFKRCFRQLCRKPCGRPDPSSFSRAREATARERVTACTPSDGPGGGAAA

[13] = biological target: 5-hydroxytryptamine receptor 1B (Homo sapiens) (UniProt P28222); assay: Agonist activity at 5-HT1B receptor (unknown origin) expressed in CHO cells assessed as calcium mobilization at 3 uM; assay type: functional, cell-based
Chain of 5-hydroxytryptamine receptor 1B (Homo sapiens) (P28222 whole entry): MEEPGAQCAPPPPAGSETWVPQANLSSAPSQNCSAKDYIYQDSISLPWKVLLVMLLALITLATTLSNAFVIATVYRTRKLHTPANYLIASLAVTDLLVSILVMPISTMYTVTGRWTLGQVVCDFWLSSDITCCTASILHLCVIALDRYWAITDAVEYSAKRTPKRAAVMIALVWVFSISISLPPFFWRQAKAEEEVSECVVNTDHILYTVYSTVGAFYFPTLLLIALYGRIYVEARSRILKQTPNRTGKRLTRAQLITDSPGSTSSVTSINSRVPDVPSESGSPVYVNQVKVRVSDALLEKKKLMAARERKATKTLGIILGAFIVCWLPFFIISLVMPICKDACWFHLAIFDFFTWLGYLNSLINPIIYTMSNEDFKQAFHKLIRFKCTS

[14] = biological target: 5-hydroxytryptamine receptor 2B (Homo sapiens) (UniProt P41595); assay: Agonist activity at 5-HT2B receptor (unknown origin) expressed in CHO cells assessed as calcium mobilization at 3 uM; assay type: functional, cell-based
Chain of 5-hydroxytryptamine receptor 2B (Homo sapiens) (P41595 whole entry): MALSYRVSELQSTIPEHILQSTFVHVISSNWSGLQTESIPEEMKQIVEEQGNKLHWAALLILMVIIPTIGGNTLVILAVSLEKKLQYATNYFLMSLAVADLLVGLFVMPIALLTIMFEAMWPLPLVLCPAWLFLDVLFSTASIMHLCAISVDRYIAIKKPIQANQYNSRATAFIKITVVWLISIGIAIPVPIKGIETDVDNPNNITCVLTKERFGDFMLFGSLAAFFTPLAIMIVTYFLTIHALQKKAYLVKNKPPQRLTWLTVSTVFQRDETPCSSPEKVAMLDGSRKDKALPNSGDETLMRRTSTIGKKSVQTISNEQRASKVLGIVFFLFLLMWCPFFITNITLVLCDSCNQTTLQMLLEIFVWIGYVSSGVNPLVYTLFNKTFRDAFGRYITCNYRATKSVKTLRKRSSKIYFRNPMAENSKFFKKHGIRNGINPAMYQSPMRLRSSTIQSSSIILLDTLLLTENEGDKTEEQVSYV

[15] = biological target: 5-hydroxytryptamine receptor 2C (Homo sapiens) (UniProt P28335); assay: Agonist activity at 5-HT2C receptor (unknown origin) expressed in CHO cells assessed as calcium mobilization at 3 uM; assay type: functional, cell-based
[16] = biological target: 5-hydroxytryptamine receptor 6 (Homo sapiens) (UniProt P50406); assay: Agonist activity at 5-HT6 receptor (unknown origin) expressed in CHO cells assessed as calcium mobilization at 3 uM; assay type: functional, cell-based
[17] = biological target: Adenosine receptor A1 (Homo sapiens) (UniProt P30542); assay: Antagonist activity at adenosine a1 receptor (unknown origin) expressed in CHO cells assessed as calcium mobilization at 3 uM; assay type: functional, cell-based
[18] = biological target: D(2) dopamine receptor (Homo sapiens) (UniProt P14416); assay: Antagonist activity at dopamine D2L receptor (unknown origin) expressed in CHO cells assessed as calcium mobilization at 3 uM; assay type: functional, cell-based
[19] = biological target: D(4) dopamine receptor (Homo sapiens) (UniProt P21917); assay: Antagonist activity at dopamine D4 receptor (unknown origin) expressed in CHO cells assessed as calcium mobilization at 3 uM; assay type: functional, cell-based
Chain of D(4) dopamine receptor (Homo sapiens) (P21917 whole entry): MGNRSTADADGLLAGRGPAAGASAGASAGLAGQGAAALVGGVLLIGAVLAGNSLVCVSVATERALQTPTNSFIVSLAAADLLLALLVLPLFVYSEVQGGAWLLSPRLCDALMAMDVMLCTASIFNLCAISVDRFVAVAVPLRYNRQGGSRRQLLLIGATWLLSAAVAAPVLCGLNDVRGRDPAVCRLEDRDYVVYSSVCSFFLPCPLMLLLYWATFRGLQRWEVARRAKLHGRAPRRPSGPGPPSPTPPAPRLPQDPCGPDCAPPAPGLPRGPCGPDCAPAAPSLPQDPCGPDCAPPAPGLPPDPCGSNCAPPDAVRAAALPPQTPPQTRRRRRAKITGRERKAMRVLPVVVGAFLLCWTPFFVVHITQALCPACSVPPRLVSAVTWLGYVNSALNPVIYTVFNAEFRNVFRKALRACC

CHO = assay: Antagonist activity at GaBaB receptor (unknown origin) expressed in CHO cells assessed as calcium mobilization at 3 uM; assay type: cell-based; settings: Homo sapiens
[20] = biological target: Cysteinyl leukotriene receptor 1 (Homo sapiens) (UniProt Q9Y271); assay: Antagonist activity at CysLT1 receptor (unknown origin) expressed in CHO cells assessed as calcium mobilization at 3 uM; assay type: functional, cell-based
Chain of Cysteinyl leukotriene receptor 1 (Homo sapiens) (Q9Y271 whole entry): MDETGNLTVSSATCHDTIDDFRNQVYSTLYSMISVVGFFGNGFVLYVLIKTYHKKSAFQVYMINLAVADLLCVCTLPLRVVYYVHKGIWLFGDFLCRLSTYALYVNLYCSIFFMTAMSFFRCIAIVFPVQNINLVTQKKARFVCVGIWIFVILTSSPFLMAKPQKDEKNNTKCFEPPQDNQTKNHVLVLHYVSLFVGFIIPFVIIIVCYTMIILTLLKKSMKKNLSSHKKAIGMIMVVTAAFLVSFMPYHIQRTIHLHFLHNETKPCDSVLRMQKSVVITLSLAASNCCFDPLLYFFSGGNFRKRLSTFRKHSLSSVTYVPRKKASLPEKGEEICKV

[21] = biological target: Cysteinyl leukotriene receptor 2 (Homo sapiens) (UniProt Q9NS75); assay: Antagonist activity at CysLT2 receptor (unknown origin) expressed in CHO cells assessed as calcium mobilization at 3 uM; assay type: functional, cell-based
[22] = biological target: Neuropeptide Y receptor type 2 (Homo sapiens) (UniProt P49146); assay: Antagonist activity at NPY2 receptor (unknown origin) expressed in CHO cells assessed as calcium mobilization at 3 uM; assay type: functional, cell-based
Chain of Neuropeptide Y receptor type 2 (Homo sapiens) (P49146 whole entry): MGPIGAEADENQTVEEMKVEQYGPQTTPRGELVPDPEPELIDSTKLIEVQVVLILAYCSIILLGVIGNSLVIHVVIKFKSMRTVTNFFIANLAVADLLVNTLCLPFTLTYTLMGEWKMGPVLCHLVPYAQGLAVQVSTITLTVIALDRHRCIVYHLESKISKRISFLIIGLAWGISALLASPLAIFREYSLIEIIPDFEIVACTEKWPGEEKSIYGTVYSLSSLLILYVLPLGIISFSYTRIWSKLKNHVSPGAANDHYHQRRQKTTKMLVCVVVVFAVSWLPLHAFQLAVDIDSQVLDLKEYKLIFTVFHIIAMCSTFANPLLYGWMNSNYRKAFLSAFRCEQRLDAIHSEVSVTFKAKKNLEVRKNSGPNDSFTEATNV

[23] = biological target: 5-hydroxytryptamine receptor 1A (Homo sapiens) (UniProt P08908); assay: Antagonist activity at 5-HT1a receptor (unknown origin) expressed in CHO cells assessed as calcium mobilization at 3 uM; assay type: functional, cell-based
Chain of 5-hydroxytryptamine receptor 1A (Homo sapiens) (P08908 whole entry): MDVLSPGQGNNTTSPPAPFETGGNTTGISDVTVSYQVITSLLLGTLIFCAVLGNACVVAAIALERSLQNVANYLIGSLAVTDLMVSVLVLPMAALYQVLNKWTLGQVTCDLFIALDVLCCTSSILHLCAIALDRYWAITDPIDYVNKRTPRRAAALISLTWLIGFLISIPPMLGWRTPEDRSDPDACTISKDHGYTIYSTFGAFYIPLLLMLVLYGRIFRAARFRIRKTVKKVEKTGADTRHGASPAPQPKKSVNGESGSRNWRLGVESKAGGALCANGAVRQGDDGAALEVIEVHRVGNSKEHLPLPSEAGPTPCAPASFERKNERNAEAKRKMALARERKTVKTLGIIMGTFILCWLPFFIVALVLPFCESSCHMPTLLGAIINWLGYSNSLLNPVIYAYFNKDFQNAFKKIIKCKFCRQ

[24] = biological target: 5-hydroxytryptamine receptor 1B (Homo sapiens) (UniProt P28222); assay: Antagonist activity at 5-HT1B receptor (unknown origin) expressed in CHO cells assessed as calcium mobilization at 3 uM; assay type: functional, cell-based

## CCOC(=O)N1[C@@H]2CC[C@H]1C[C@H](CN1CC[C@@H](N3Cc4ccccc4NC3=O)C1)C2
[1]
  Activity: 81%
[2]
  Activity: 1%
Cytochrome P450 1A2
  pIC50: < 5.70
Cytochrome P450 3A4
  pIC50: < 5.70
[3]
  Kp: 2.42
[4]
  inhibition: 13%
[5]
  Activity: 2%
Rattus norvegicus
  ED50: 3 mg/kg
[6]
  Activity: -0.25%
[7]
  Activity: -0.89%
[8]
  Activity: 0.06%
[9]
  Activity: 0.08%
[10]
  Activity: -0.38%
[11]
  Activity: 0.03%
[12]
  Activity: -0.04%
[13]
  Activity: -1.26%
[14]
  Activity: -0.03%
[15]
  Activity: 0.22%
[16]
  Activity: -0.54%
[17]
  inhibition: -3.67%
[18]
  inhibition: 13.2%
[19]
  inhibition: 11.6%
CHO
  inhibition: 4.47%
[20]
  inhibition: 0.46%
[21]
  inhibition: 18.8%
[22]
  inhibition: -1.91%
[23]
  inhibition: -3.46%
[24]
  inhibition: 10.5%

From ChEMBL document CHEMBL3632469, “Discovery of dihydroquinazolinone derivatives as potent, selective, and CNS-penetrant M(1) and M(4) muscarinic acetylcholine receptors agonists” (Bioorg Med Chem Lett, 2015)
